Experimental data as given in patent EP4772634A1, “DOUBLE-STRANDED RNA TARGETING COAGULATION FACTOR XI” (Chia Tai Tianqing Pharmaceutical Group Co., Ltd., priority 2023, dated 2025).

Tests used:
[1] = system: human coagulation factor XI protein; test: In vivo activity in human coagulation factor XI model mice (Experimental Example 3), plasma FXI protein by ELISA; details: humanized mice
Method: The humanized mice used in this experimental example were purchased from Cyagen Biosciences Co., Ltd. The humanized mice were randomly divided into groups, with 4 mice per group. The compound and PBS control (pH = 7.2) were administered to each group of mice, respectively. The day of the first administration was designated as day 0 of the experiment. The corresponding compound solutions were administered via a single subcutaneous injection based on animal body weight, at administration doses of 1 mg/kg and 5 mg/kg. PBS control mice were each administered PBS, with an administration volume of 10 mL/kg body weight. Orbital blood was collected before administration and on day 7, day 14, day 28, day 42, and day 63 after administration. Plasma was separated, and the content of the coagulation factor XI protein in the plasma was measured at each time point.
About 165 µL of blood was collected from the orbital veins for plasma collection. A 3.8% trisodium citrate anticoagulant was added to the whole blood in a volume ratio of 1:9 (anticoagulant:[…], v/v), and the mixture was centrifuged at 3000 rpm at 20 °C for 15 min to collect plasma. The content of the coagulation factor XI protein in the plasma obtained from the above groups of mice (test groups administered the compound and PBS control group) was measured using a Human Coagulation Factor XI ELISA kit (Sigma, Cat. No. RAB1385-1KT).
(§1) The coagulation factor XI protein inhibition rate was calculated according to the following equation: [formula]
Table 11 lists the measurement of FXI protein content in animal plasma before and on day 7, day 14, day 28, day 42, and day 63 after a single subcutaneous administration of siRNA ligand conjugates (TD01M01L01, TD02M01L01) at doses of 1 mg/kg and 5 mg/kg to humanized homozygous mice. […] Table 11. In vivo experimental design

[2] = system: human coagulation factor XI protein; test: In vivo activity in human coagulation factor XI model mice (Experimental Example 4), FXI protein by ELISA; details: female humanized homozygous mice, single subcutaneous 3 mg/kg
Method: The humanized mice used in this experimental example were purchased from Cyagen Biosciences Co., Ltd. The female humanized homozygous mice were randomly divided into groups, with 4 mice per group. The compound and PBS control (pH = 7.2) were administered to each group of mice, respectively. The day of the first administration was designated as day 0 of the experiment. The corresponding compound solutions were administered via a single subcutaneous injection based on animal body weight, at an administration dose of 3 mg/kg. PBS control mice were each administered PBS, with an administration volume of 10 mL/kg body weight. Orbital blood was collected before administration and on day 3, day 7, day 14, day 21, day 28, day 42, day 56, and day 70 after administration. Serum was separated, and the content of the coagulation factor XI protein in the serum at each time point was measured using a Human Coagulation Factor XI ELISA kit (Thermo, Batch No. 2350072722, Cat. No. EH118RB).
as §1
Table 13 lists the measurement of coagulation factor XI protein content in animal plasma before and on day 3, day 7, day 14, day 21, day 28, day 42, day 56, and day 70 after a single subcutaneous administration of siRNA ligand conjugates at a dose of 3 mg/kg to humanized homozygous mice. […] Table 13. In vivo experimental design

[3] = system: human coagulation factor XI protein; test: In vivo activity in AAV-FXI model mice, serum FXI protein by ELISA; details: AAV-FXI mice (C57BL/6 male), single subcutaneous 3 mg/kg
Method: 4-6 week old C57BL/6 male mice were injected via the tail vein with 1 × 10^11 vg of AAV8-FXI (WZ Biosciences). On day 28 after modeling, mice with an hFXI protein content of greater than 100 ng/mL were selected. The mice were randomly divided into groups based on body weight and were injected with 3 mg/kg of the dsRNA ligand conjugate of the present application (amount calculated based on siRNA only) on day 0. Orbital blood was collected on day 7, day 14, day 35, and day 56. Serum was separated, and the content of the coagulation factor XI protein in the serum at each time point was measured using a Human Coagulation Factor XI ELISA kit (Thermo, Cat. No. EH118RB).
as §1
The content of the coagulation factor XI protein in animal serum was measured before and on day 7, day 14, day 35, and day 56 after a single subcutaneous administration of the dsRNA ligand conjugate of the present application at a dose of 3 mg/kg to AAV-FXI mice (see Table 15). […] Table 15. In vivo experimental design

[4] = single subcutaneous 1 mg/kg, D7
[5] = single subcutaneous 1 mg/kg, D14
[6] = single subcutaneous 1 mg/kg, D28
[7] = single subcutaneous 1 mg/kg, D42
[8] = single subcutaneous 1 mg/kg, D63
[9] = single subcutaneous 5 mg/kg, D7
[10] = single subcutaneous 5 mg/kg, D14
[11] = single subcutaneous 5 mg/kg, D28
[12] = single subcutaneous 5 mg/kg, D42
[13] = single subcutaneous 5 mg/kg, D63

Substance	Relative inhibition rate (%) of FXI protein [1, 4]	Relative inhibition rate (%) of FXI protein [1, 5]	Relative inhibition rate (%) of FXI protein [1, 6]	Relative inhibition rate (%) of FXI protein [1, 7]	Relative inhibition rate (%) of FXI protein [1, 8]	Relative inhibition rate (%) of FXI protein [1, 9]	Relative inhibition rate (%) of FXI protein [1, 10]	Relative inhibition rate (%) of FXI protein [1, 11]	Relative inhibition rate (%) of FXI protein [1, 12]	Relative inhibition rate (%) of FXI protein [1, 13]	Relative inhibition rate (%) of FXI protein ([3]; D7)	Relative inhibition rate (%) of FXI protein ([3]; D14)	further results
TD01M01L01: siRNA ligand conjugate: TD01M01 with L01 (GalNAc) ligand at 3' end of sense strand SEQ ID NO 29; antisense SEQ ID NO 30 (sense GATCTCCAACTAAAATACT; antisense AGTATTTTAGTTGGAGATCCG; GalNAc L01 ligand at sense 3' end, 2'-OMe/2'-F, pattern not given here)	58.1%	67.5%	58.6%	68.8%	41.3%	90.5%	92.8%	89.5%	91.8%	74.4%	–	–	–
TD01M02L01: siRNA ligand conjugate: TD01M02 with L01 (GalNAc) ligand at 3' end of sense strand SEQ ID NO 31; antisense SEQ ID NO 32 (sense GATCTCCAACTAAAATACT; antisense AGTATTTTAGTTGGAGATCCG; GalNAc L01 ligand at sense 3' end, 2'-OMe/2'-F, pattern not given here)	65.1%	67.4%	62.5%	69.3%	44.6%	90.9%	93.1%	92.4%	93.1%	76.6%	–	–	Relative inhibition rate (%) of FXI protein ([2]; D3): 69.3%; Relative inhibition rate (%) of FXI protein ([2]; D7): 88.5%; Relative inhibition rate (%) of FXI protein ([2]; D14): 91.8%; Relative inhibition rate (%) of FXI protein ([2]; D21): 91.7%; Relative inhibition rate (%) of FXI protein ([2]; D28): 91.3%; Relative inhibition rate (%) of FXI protein ([2]; D42): 86.1%; Relative inhibition rate (%) of FXI protein ([2]; D56): 76.1%; Relative inhibition rate (%) of FXI protein ([2]; D70): 68.9%
TD02M01L01: siRNA ligand conjugate: TD02M01 with L01 (GalNAc) ligand at 3' end of sense strand SEQ ID NO 33; antisense SEQ ID NO 34 (sense GGATGATTTTCTTATATCA; antisense TGATATAAGAAAATCATCCTG; GalNAc L01 ligand at sense 3' end, 2'-OMe/2'-F, pattern not given here)	61.5%	63.9%	49.2%	52.9%	41.1%	91.8%	94.0%	87.8%	89.4%	69.0%	–	–	–
TD05M02L01: dsRNA ligand conjugate: TD05M02 with L01 (GalNAc) ligand at 3' end of sense strand SEQ ID NO 47; antisense SEQ ID NO 48 (sense CTTTTCAGGATGATTTTCT; antisense AGAAAATCATCCTGAAAAGAC; GalNAc L01 ligand at sense 3' end, 2'-OMe/2'-F, pattern not given here)	–	–	–	–	–	–	–	–	–	–	96.3%	96.6%	Relative inhibition rate (%) of FXI protein ([3]; D35): 81.7%; Relative inhibition rate (%) of FXI protein ([3]; D56): 51.0%
TD12M02L01: dsRNA ligand conjugate: TD12M02 with L01 (GalNAc) ligand at 3' end of sense strand SEQ ID NO 75; antisense SEQ ID NO 76 (sense TGATTTTCTTATATCAAGT; antisense ACTTGATATAAGAAAATCATC; GalNAc L01 ligand at sense 3' end, 2'-OMe/2'-F, pattern not given here)	–	–	–	–	–	–	–	–	–	–	88.4%	88.0%	–
